Data taken from ChEMBL document CHEMBL1629546 (Antimicrob Agents Chemother, 2008).
Values after ≈ are worked out from the molar mass of the structure shown. Active and inactive are the calls of the source. The calls are words filed in the database; no cut-off is given here.

Experiments:
Bacillus anthracis [1] = details: in vivo
Bacillus anthracis [2] = experiment: Antimicrobial activity against Bacillus anthracis infected in in vitro hollow fiber PK/PD model assessed as cell killing at 800 mg administered once every 24 hrs; assay type: functional, organism-based
Bacillus anthracis [3] = details: in vivo, 24 h
Bacillus anthracis [4] = details: in vivo; remark: listed apart in the source
Bacillus anthracis [5] = experiment: Antimicrobial activity against wild-type Bacillus anthracis; assay type: functional
Bacillus anthracis [6] = details: in vivo, 24 h; remark: listed apart in the source
Bacillus anthracis [7] = experiment: Antimicrobial activity against Bacillus anthracis infected in in vitro hollow fiber PK/PD model assessed as reduction in bacterial burden at 700 mg administered once every 24 hrs; assay type: functional, organism-based
Bacillus anthracis [8] = experiment: Antimicrobial activity against Bacillus anthracis infected in in vitro hollow fiber PK/PD model assessed as bacterial regrowth at 200 mg administered once every 24 hrs; assay type: functional, organism-based
Bacillus anthracis [9] = experiment: Antimicrobial activity against Bacillus anthracis infected in in vitro hollow fiber PK/PD model assessed as bacterial regrowth at 600 mg administered once every 24 hrs; assay type: functional, organism-based
Bacillus anthracis [10] = details: in vivo; remark: listed apart in the source
Bacillus anthracis [11] = experiment: Antimicrobial activity against Bacillus anthracis infected in in vitro hollow fiber PK/PD model assessed as cell killing at 200 mg administered once every 24 hrs; assay type: functional, organism-based
Bacillus anthracis [12] = details: in vivo, 24 h; remark: listed apart in the source
Bacillus anthracis [13] = experiment: Antimicrobial activity against Bacillus anthracis infected in in vitro hollow fiber PK/PD model assessed as cell killing at 300 mg administered once every 24 hrs; assay type: functional, organism-based
Bacillus anthracis [14] = experiment: Antimicrobial activity against Bacillus anthracis infected in in vitro hollow fiber PK/PD model assessed as bacterial regrowth at 500 mg administered once every 24 hrs; assay type: functional, organism-based
Bacillus anthracis [15] = experiment: Antimicrobial activity against Bacillus anthracis infected in in vitro hollow fiber PK/PD model assessed as bacterial killing at 500 mg administered once every 24 hrs for 15 days; assay type: functional, organism-based
Bacillus anthracis [16] = details: in vivo, 24 h; remark: listed apart in the source
Bacillus anthracis [17] = details: in vivo, 24 h; remark: listed apart in the source
Bacillus anthracis [18] = details: in vivo, 24 h; remark: listed apart in the source
Bacillus anthracis [19] = details: in vivo, 24 h; remark: listed apart in the source
Bacillus anthracis [20] = details: in vivo; remark: listed apart in the source
Bacillus anthracis [21] = details: in vivo, 24 h; remark: listed apart in the source
Bacillus anthracis [22] = details: in vivo, 24 h; remark: listed apart in the source
Bacillus anthracis [23] = details: in vivo; remark: listed apart in the source
Bacillus anthracis [24] = details: in vivo, 24 h; remark: listed apart in the source
Bacillus anthracis [25] = details: in vivo, 24 h; remark: listed apart in the source
Bacillus anthracis [26] = experiment: Antimicrobial activity against Bacillus anthracis infected in in vitro hollow fiber PK/PD model assessed as cell killing at 400 mg administered once every 24 hrs; assay type: functional, organism-based
Bacillus anthracis [27] = experiment: Antimicrobial activity against Bacillus anthracis infected in in vitro hollow fiber PK/PD model assessed as bacterial regrowth at 400 mg administered once every 24 hrs; assay type: functional, organism-based
Bacillus anthracis [28] = experiment: Antimicrobial activity against Bacillus anthracis infected in in vitro hollow fiber PK/PD model assessed as bacterial regrowth at 300 mg administered once every 24 hrs; assay type: functional, organism-based
Bacillus anthracis [29] = details: in vivo, 24 h; remark: listed apart in the source
Bacillus anthracis [30] = experiment: Antimicrobial activity against Bacillus anthracis infected in in vitro hollow fiber PK/PD model assessed as bacterial killing at 800 mg administered once every 24 hrs; assay type: functional, organism-based
Bacillus anthracis [31] = experiment: Antimicrobial activity against Bacillus anthracis infected in in vitro hollow fiber PK/PD model assessed as prevention of bacterial regrowth at 700 mg administered once every 24 hrs; assay type: functional, organism-based
Bacillus anthracis [32] = experiment: Antimicrobial activity against Bacillus anthracis infected in in vitro hollow fiber PK/PD model assessed as prevention of bacterial regrowth at 800 mg administered once every 24 hrs; assay type: functional, organism-based
Bacillus anthracis [33] = experiment: Antimicrobial activity against Bacillus anthracis infected in in vitro hollow fiber PK/PD model assessed as cell killing at 800 mg administered as 4 divided doses every 6 hrs; assay type: functional, organism-based
Bacillus anthracis [34] = experiment: Antimicrobial activity against Bacillus anthracis infected in in vitro hollow fiber PK/PD model assessed as bacterial killing at 600 mg administered once every 24 hrs for 15 days; assay type: functional, organism-based
Bacillus anthracis [35] = experiment: Antimicrobial activity against Bacillus anthracis infected in in vitro hollow fiber PK/PD model assessed as bacterial regrowth at 100 mg administered once every 24 hrs; assay type: functional, organism-based
Bacillus anthracis [36] = details: in vivo, 24 h; remark: listed apart in the source
Bacillus anthracis [37] = details: in vivo; remark: listed apart in the source
Bacillus anthracis [38] = details: in vivo; remark: listed apart in the source
Bacillus anthracis [39] = details: in vivo; remark: listed apart in the source
Bacillus anthracis [40] = experiment: Antimicrobial activity against Bacillus anthracis infected in in vitro hollow fiber PK/PD model assessed as cell killing at 800 mg administered as 2 divided doses every 12 hrs; assay type: functional, organism-based
Bacillus anthracis [41] = details: in vivo; remark: listed apart in the source
Bacillus anthracis [42] = details: in vivo; remark: listed apart in the source

In the case of `O=C(O)c1cn(C2CC2)c2cc(N3CCNCC3)c(F)cc2c1=O` [CIPROFLOXACIN], the fAUC (Bacillus anthracis [1]) is reported as 22356 ng·h/mL.
`CC(=O)NC[C@H]1CN(c2ccc(N3CCOCC3)c(F)c2)C(=O)O1` [LINEZOLID] was tested, and the Activity (Bacillus anthracis [2]) was “Active”, the fAUC (Bacillus anthracis [3]) was 91106 ng·h/mL and the fAUC (Bacillus anthracis [4]) was 91216 ng·h/mL. The MIC (Bacillus anthracis [5]) was 3 µg/mL (≈ 8.89 µM), the fAUC (Bacillus anthracis [6]) was 56283 ng·h/mL and the Activity (Bacillus anthracis [7]) was “Active”. For the same compound, the Activity (Bacillus anthracis [8]) was “Active”, the Activity (Bacillus anthracis [9]) was “Active” and the fAUC (Bacillus anthracis [10]) was 36244 ng·h/mL. The Activity (Bacillus anthracis [11]) was “Active”, the fAUC (Bacillus anthracis [12]) was 22498 ng·h/mL and the Activity (Bacillus anthracis [13]) was “Active”. The Activity (Bacillus anthracis [14]) was “Active”, the Activity (Bacillus anthracis [15]) was “Active” and the fAUC (Bacillus anthracis [16]) was 90106 ng·h/mL. For the same compound, the fAUC (Bacillus anthracis [17]) was 71422 ng·h/mL, the fAUC (Bacillus anthracis [18]) was 71422 ng·h/mL and the fAUC (Bacillus anthracis [19]) was 33746 ng·h/mL. The fAUC (Bacillus anthracis [20]) was 115702 ng·h/mL, the fAUC (Bacillus anthracis [21]) was 11249 ng·h/mL and the fAUC (Bacillus anthracis [22]) was 78508 ng·h/mL. For the same compound, the fAUC (Bacillus anthracis [23]) was 91284 ng·h/mL, the fAUC (Bacillus anthracis [24]) was 45553 ng·h/mL and the fAUC (Bacillus anthracis [1]) was 90081 ng·h/mL. For the same compound, the fAUC (Bacillus anthracis [25]) was 91106 ng·h/mL, the Activity (Bacillus anthracis [26]) was “Active” and the Activity (Bacillus anthracis [27]) was “Active”. For the same compound, the Activity (Bacillus anthracis [28]) was “Active”, the fAUC (Bacillus anthracis [29]) was 78508 ng·h/mL and the Activity (Bacillus anthracis [30]) was “Active”. For the same compound, the Activity (Bacillus anthracis [31]) was “Active”, the Activity (Bacillus anthracis [32]) was “Active” and the Activity (Bacillus anthracis [33]) was “Active”. For the same compound, the Activity (Bacillus anthracis [34]) was “Active”, the Activity (Bacillus anthracis [35]) was “Active” and the fAUC (Bacillus anthracis [36]) was 56283 ng·h/mL. For the same compound, the fAUC (Bacillus anthracis [37]) was 71300 ng·h/mL, the fAUC (Bacillus anthracis [38]) was 74371 ng·h/mL and the fAUC (Bacillus anthracis [39]) was 56245 ng·h/mL. The Activity (Bacillus anthracis [40]) was “Active”, the fAUC (Bacillus anthracis [41]) was 71540 ng·h/mL and the fAUC (Bacillus anthracis [42]) was 56258 ng·h/mL.
